As a reminder, the melting point is the temperature of the solid-liquid transition.

SMILES strings stand for the structures.

In turn, `CC1=C(C(=O)OC(C)(C)C)C(c2cccc(Br)c2)C(C(=O)OC(C)(C)C)=C(C)N1` came in with a melting point of 195 to 196 °C.
In turn, `CN1CCN(c2ccc(Nc3ncc4c(n3)S/C(=C/c3ccc([N+](=O)[O-])cc3)C(=O)N4)cc2)CC1` returned a melting point of 276 to 279 °C.
`O=C(NCCO)c1cc(Cl)c(O)c(Cl)c1` showed a melting point of 174 to 178 °C.
The figure for `CCc1cc(C2(c3ccc(F)c(-c4cnccc4F)c3)N=C(N)N(C)C2=O)cc(CC)n1` (stereo not given) is 92 to 100 °C.
As to `N#Cc1c2c(cc3ccc(O)cc13)-c1ccc(O)cc1CO2`, the melting point was > 280 °C.
The figure for `COC(=O)c1ccc(-c2nnc(-c3ccc(C(F)(F)F)cc3)o2)cc1` is 216 to 217 °C; for `CC1(C)COP(N(C2CC(C)(C)NC(C)(C)C2)C2CC(C)(C)NC(C)(C)C2)OC1` it is 156 °C.
To `CC/C(=C\C=C\C(=O)Oc1ccc([N+](=O)[O-])cc1)c1ccc(OC)cc1` belongs 112 to 114 °C; to `CCc1coc2c(-c3ccc(S(C)(=O)=O)cc3)c(-c3ccc(F)cc3)nn12`, 205 to 208 °C.
`O=c1c(O)c(-c2ccc3c(c2)OC(c2ccccc2)(c2ccccc2)O3)oc2cc(O)cc(O)c12` came in with a melting point of 239 to 240 °C.
The figure for `CCC(=O)CNC(=O)CSc1cnc(NC(C)=O)s1` is 195 to 196 °C; for `Cc1oc(-c2ccccc2)nc1COc1cccc(COc2cc(Cl)ccc2C(=O)O)c1` it is 168 °C.
The molecule `COc1ccc2c(c1)C(=O)N(c1ccc3nc(C)ncc3c1)C2` showed a melting point of 245 to 247 °C.
The molecule `COC(=O)C=Cc1ccc(-n2c(C)ccc2C)cc1` displayed a melting point of 73 to 75 °C.
To `O=C(O)c1cn(CCc2ccc(Cl)cc2)c2cc(C3CC3)nn2c1=O` belongs 220 to 225 °C; to `CC(O)Cc1cnn(-c2c(Cl)cc(C(F)(F)F)cc2Cl)n1` (stereo not given), 68 to 69 °C; to `Cc1noc(-c2ccc(C(F)(F)F)cc2)c1C(=O)Nc1ccccc1C(=O)O`, 205 to 206 °C.
`CCOC(=O)c1c(-c2cccc(F)c2)c(Cl)n2c1CNCC2` yielded a melting point of 96 to 98 °C.
To `CCCn1c(=O)c2c(nc(C=Cc3cc(OC)c(OC)c(OC)c3S(=O)(=O)O)n2C)n(CCC)c1=O` belongs 248 to 250 °C; to `CCCN(C1=C(O)CC(CCc2ccc(O)cc2)(C2CCCC2)OC1=O)c1ccccc1` (stereo not given), 95 °C.
The figure for `Cc1nnc2c(NC(N)=O)cc3cc(-c4ccc(CN5CCCCC5)cc4)ccc3n12` is > 260 °C; for `O=S(CCCCCOc1ccc(C2=C(c3ccccc3)CCCc3cc(O)ccc32)cc1)Cc1ccccc1` (stereo not given) it is 196 °C.
To `c1ccc2c(c1)NCc1nnnn1-2` belongs 149 to 151 °C; to `Cn1ncc(NCCN2CCC(c3noc4cc(F)ccc34)CC2)cc1=O`, 200 to 202 °C.
`O=C1C[C@@H]2[C@@H](/C=C/C(=O)[C@@H]3OCc4ccccc4O3)[C@H](OC(=O)c3ccccc3)C[C@@H]2O1` displayed a melting point of 129 to 130 °C.
To `Cc1ccnc(Nc2nc(-c3ccc(OC(F)(F)F)cc3)cs2)c1` belongs 275 to 282 °C; to `O=C(NC(CCCl)c1ccccc1Br)c1c(F)cccc1F` (stereo not given), 183 to 185 °C; to `Cc1nc(C#Cc2cncc(CO)c2)cs1`, 98 to 99 °C.
To `O=C(Cn1nc(-c2ccccc2O)nc1-c1ccccc1O)N1CCOCC1` belongs 149 to 151 °C; to `O=C(O)CCc1cc2ccc(C(F)(F)F)cc2n1S(=O)(=O)c1ccccc1`, 168 to 169 °C; to `CC(C)(CCC(=O)N[C@H](Cc1ccccc1)C(=O)NCCCCNC(=N)N)C(=O)O`, 169 °C.
The figure for `CC(C)Oc1ccc2c(c1)C(=O)c1ccc(C(=O)O)cc1CC2` is 174 to 177 °C; for `COC(=O)c1cc2ccc(OC)cc2o1` it is 97 to 98 °C; for `Nc1ccc(-c2nc3ccc(F)cc3s2)cc1` it is 152 to 155 °C.
Take `CCOCCNc1ncc(Cc2cc(OC)c(OC)c(OC)c2)c(N)n1`: the melting point was 147 °C.
The molecule `COc1ccc(Br)c(CC(C#N)C(=O)O)c1OC` (stereo not given) registered a melting point of 120 to 122 °C.
To `O=C(O)c1cccc(N2C(=O)c3ccc([N+](=O)[O-])cc3C2=O)c1` belongs 368 to 370 °C; to `CC(=O)Nc1ccc2nc(CN3[C@H](C)CCC[C@@H]3C)ccc2c1`, 120 to 122 °C.
Regarding `CC(C)(C)[Si](OCCOc1ccc([N+](=O)[O-])cn1)(c1ccccc1)c1ccccc1`, the melting point lay within 63 to 64 °C.
To `OCC1OC(n2cnc3c(NC4CCCc5ccccc54)ncnc32)C(O)C1O` (stereo not given) belongs 95.5 to 100 °C.
In turn, `CNC(=O)CC1CSc2c(C(=O)OC(C)C)c(C)cn21` (stereo not given) showed a melting point of 108 to 109 °C.
The figure for `O=c1[nH]c2ccccc2c2cc(CO)nn12` is 286 to 288 °C; for `Fc1ccc(-c2cc(Br)sc2-c2ccc(F)cc2)cc1` it is 91 to 93 °C.
To `Cc1ccc2cc(C(=O)O)oc2c1C` belongs 235 to 237 °C.
In turn, `COc1ccc2ncc(C(N)=O)cc2c1` gave a melting point of 93.7 to 95.7 °C.
With `COC(=O)c1ccccc1CSc1c(O)cc(-c2ccccc2)oc1=O`, the melting point fell in the range of 122 to 123 °C.
For `CCOC(=O)Cc1nc(C)n2c1CN=C(c1ccccc1Cl)c1cc(Cl)ccc1-2`, the melting point lay within 143 to 154 °C.
For `CN(C)C(=O)c1nc(-c2cnccn2)nc2c1c1ccc(Cl)cc1n2C`, the melting point was in the range of 272 to 273 °C.
To `C#CCn1c(=O)sc2cc(F)c(-n3c(=O)cc(C(F)(F)F)[nH]c3=O)cc21` belongs 224 to 227 °C.
The figure for `NNC(=O)c1cn2ccccc2n1` is 195 to 198 °C; for `O=C(Cl)CC(c1ccccc1)c1ccccc1` it is 41 to 43 °C.
Consider `CC(=O)Oc1ccc(CC2SC(=O)N(C(c3ccccc3)(c3ccccc3)c3ccccc3)C2=O)cc1` (stereo not given), for which the melting point lay within 152 to 156 °C.
Turning to `CCCOc1ccc(S(=O)(=O)N2CCC(C(=O)OCC)CC2)cc1-c1nc2cc(Cl)c([N+](=O)[O-])cc2c(=O)[nH]1`, the melting point fell in the range of 203 to 204 °C.
The figure for `O=c1[nH]c2cc(Cl)ccc2c(O)c1-c1ccc(Oc2ccccc2)cc1` is 274 to 276 °C; for `COc1cc2c(cc1OC)C(C)CC(N)C(=O)N2` (stereo not given) it is 103 °C; for `Cc1ccc(NC(=O)c2cc(Cl)c(O)c(Cl)c2)c(O)c1` it is 246 to 247 °C.
To `CCCn1c(COC)nc2c(N)nc3ccc(OCCN4CCCCC4)cc3c21` belongs 160 to 162 °C; to `Cc1ccc(N2C(=S)SCC2(C)O)nc1` (stereo not given), 108 °C; to `Fc1ccc(-c2ccc(N3CCCN(c4ccc(-c5ccc(F)cc5)cn4)CC3)nc2)cc1`, 268 to 270 °C.
To `Clc1ccc(Nc2nc(-c3cccc(Br)n3)nc3ccccc23)cc1` belongs 242 to 248 °C.
`ONCc1ccc(N2CCC3(CC2)OCCO3)cc1` displayed a melting point of 107 to 109 °C.
To `O=[N+]([O-])c1cc(O)ccc1F` belongs 86 to 87 °C; to `O=C(O)c1cccnc1N1CCN(CCOCCO)CC1`, 172 to 174 °C; to `CC(C)(C)c1ccc(C2CCCN3CCS(=O)(=O)N=C23)cc1` (stereo not given), 232 to 236 °C.
Turning to `CNc1cccc(NC(=O)CO)c1C#N`, the melting point is 160 to 162 °C.
Take `CCCNC(=O)Nc1nn(Cc2ccccc2)cc1C(=O)OCC`: the melting point lay within 100 to 101 °C.
In turn, `CCc1cc(Cl)c(N)c(Cl)c1` came in with a melting point of 47 to 48 °C.
The molecule `COc1ccc(N2CCN(c3c(C)c(C)c4c(c3C)C(N3CCCC3)C(C)(C)O4)CC2)cc1OC` (stereo not given) showed a melting point of 128 to 130 °C.
In the case of `Cc1ccc(C)c(OCc2ccccc2CC#N)c1`, the melting point is 51.5 to 53 °C.
The figure for `CC(c1ccccc1N1CCCCC1)C(C(N)=O)c1ccc(C(=O)N(C)C)cc1` (stereo not given) is 148 to 150 °C.
The figure for `O=C(NC(=O)c1c(Cl)cccc1Cl)Nc1ccc(Cl)cn1` is 220 to 222 °C.
To `CSC1(CC(=O)O)CCC1` belongs 43 to 46 °C; to `O=S(=O)(c1ccc(Cl)cc1)C(c1ccncc1)c1cc(F)ccc1F` (stereo not given), 126 to 127 °C.
On to `C=CCN1Cc2nc3c(cnn3C=C)c(N)c2C1=O`, for which the melting point lay in the range of 190 to 191 °C.
The figure for `CCCc1nn(C)c(C(N)=O)c1NC(=O)c1sccc1OCC` is 103 to 104 °C.
To `COc1cc(OC)c(-c2ccc(N(C)CCN(C)c3ccc(-c4c(OC)cc(OC)cc4OC)nc3)cn2)c(OC)c1` belongs 264 to 265 °C.
Molecule `COc1cccc(-c2cc(=O)c3c(OC)cc(OC)c(C4=CCN(C)CC4)c3o2)c1OC` returned a melting point of 195 to 196 °C.
Take `O=C1NC(=O)N(CCc2ccc(Cl)cc2)C1O` (stereo not given): the melting point lay within 151 to 152 °C.
Consider `CCCCC(=N)NC(=O)NC1CCCCC1`, for which the melting point lay in the range of 146 to 148 °C.
To `Cc1c(N2C[C@@H](N)C(C)(C)C2)c(F)c(N)c2c(=O)c(C(=O)O)cn(C3CC3)c12` belongs 192 to 193 °C.
Consider `NC(=O)N1C(=O)C(=C(OCCc2ccccc2)c2cccs2)c2cc(F)c(Cl)cc21`, for which the melting point lay in the range of 202 to 203 °C.
Take `COc1ncc(C2OC(CO)C(O)C2O)c(OC)n1` (stereo not given): the melting point fell in the range of 138 to 139 °C.
With `COc1ccc2nc(Cl)c(NN)nc2c1`, the melting point is < 250 °C.
Take `COc1ccc2cc([C@H](C)C(=O)OCCS(=O)(=O)CCO)ccc2c1`: the melting point fell in the range of 81 to 84 °C.
Consider `CC(C)(C)c1cc(-c2nn(CC3CC3)c3ncccc23)cc(C(C)(C)C)c1O`, for which the melting point fell in the range of 135 to 137 °C.
Molecule `O=C(Nc1ccc(Cl)c(Cl)c1)c1c(O)c2ccccc2oc1=O` gave a melting point of 227 to 228 °C.
To `COc1cc(-c2nn(C)c(C(F)(F)F)c2Cl)c(F)cc1[N+](=O)[O-]` belongs 115 to 116 °C; to `Cc1cc(S(=O)(=O)F)ccc1Br`, 47 to 48 °C.
To `Cc1ccc(C(CCN(C(C)C)C(C)C)(CCN(C(C)C)C(C)C)C(N)=O)cc1` belongs 97 to 100 °C; to `CCOC(=O)N1CCC(Nc2cc(OC)ccc2N)CC1`, 97 to 99 °C.

Source of the values: a melting point compilation (Tetko et al.; mined from patent text by program, amines drawn as free bases though some values may be those of a salt).
